Reference: patent US20240050601A1, “COMPOSITIONS AND ASSOCIATED METHODS FOR SUSTAINED-RELEASE OF RADIOACTIVE AGENTS AND THEIR APPLICATIONS” (priority 2020, published 2024)

Key:
in vivo = settings: Balb/C, mouse
Method: The hydrogel was prepared, kept in a 4° C. refrigerator overnight ensuring a complete mixing, and balanced to ambient temperature prior to the administration. The molecular weight of ICG is 775 Da, which was used here as an example of small molecule. Two animal groups with different route of subcutaneous (s.c.) or intramuscular (i.m.) injection was assessed with an injection volume of 500 μl or 50 μl, respectively. The imaging was conducted for the animals immediately after hydrogel administration (within 1 minute), and then at predetermined time points of post injection.

[1] = test system: myeloproliferative neoplasms (MPNs); settings: low dose range (5-7 mCi per intravenous injection, total up to 4 injections); cited from earlier work

| half-life (in vivo; im, 50 μl) [h] | half-life (in vivo; sc, 500 μl) [h] | SMILES | tolerability and efficacy in MPNs [1] |
| --- | --- | --- | --- |
| ~4 | ~24 | CC1(C)C(/C=C/C=C/C=C/C=C2\N(CCCCS(=O)(=O)O)c3ccc4ccccc4c3C2(C)C)=[N+](CCCCS(=O)(=O)[O-])c2ccc3ccccc3c21 [TCG, indocyanine green] | – |
| – | – | O=[32P](O)(O)O [phosphate P-32] | well-tolerated and efficacious |
